Key:
Test in all cases: Test D postemergence
Assay type in all cases: in vivo
Settings in all cases: scale 0 to 100
[1] = test system: Italian ryegrass (Lolium multiflorum)
How it was run: (§1)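 Visual injury scored 0–100 (0 = no effect, 100 = complete control) against controls 14 to 21 days after treatment in a controlled growth environment. Compounds were applied in surfactant-containing non-phytotoxic solvent, preemergence onto silt loam-sown seeds or postemergence onto 1- to 4-leaf plants.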

[2] = test system: blackgrass (Alopecurus myosuroides)
How it was run: as §1

[3] = test system: bluegrass (annual bluegrass, Poa annua)
How it was run: as §1

[4] = test system: canarygrass (Phalaris minor)
How it was run: as §1

[5] = test system: chickweed (common chickweed, Stellaria media)
How it was run: as §1

[6] = test system: deadnettle (henbit deadnettle, Lamium amplexicaule)
How it was run: as §1

[7] = test system: downy bromegrass (Bromus tectorum)
How it was run: as §1

[8] = test system: field violet (Viola arvensis)
How it was run: as §1

[9] = test system: galium (catchweed bedstraw, Galium aparine)
How it was run: as §1

[10] = test system: green foxtail (Setaria viridis)
How it was run: as §1

[11] = test system: lambsquarters (Chenopodium album)
How it was run: as §1

[12] = test system: pigweed (Amaranthus retroflexus)
How it was run: as §1

[13] = test system: spring wheat (Triticum aestivum)
How it was run: as §1

[14] = test system: wild buckwheat (Polygonum convolvulus)
How it was run: as §1

[15] = test system: windgrass (Apera spica-venti)
How it was run: as §1

[16] = test system: winter barley (Hordeum vulgare)
How it was run: as §1

FC(F)(F)c1cnc(Oc2c(Br)cccc2Oc2ncc(Cl)cn2)nc1 [Compound 24]
98: Plant response rating, Field Violet ([8]; 125 g ai/ha) | Plant response rating, Pigweed ([12]; 62 g ai/ha)
90: Plant response rating, Galium ([9]; 125 g ai/ha)
75: Plant response rating, Chickweed ([5]; 62 g ai/ha) | Plant response rating, Deadnettle ([6]; 62 g ai/ha) | Plant response rating, Field Violet ([8]; 31 g ai/ha) | Plant response rating, Lambsquarters ([11]; 125 g ai/ha) | Plant response rating, Buckwheat, Wild ([14]; 62 g ai/ha)
30: Plant response rating, Blackgrass ([2]; 31 g ai/ha) | Plant response rating, Canarygrass ([4]; 16 g ai/ha) | Plant response rating, Foxtail, Green ([10]; 125 g ai/ha)
45: Plant response rating, Blackgrass ([2]; 125 g ai/ha) | Plant response rating, Canarygrass ([4]; 62 g ai/ha) | Plant response rating, Canarygrass ([4]; 125 g ai/ha) | Plant response rating, Lambsquarters ([11]; 31 g ai/ha)
65: Plant response rating, Field Violet ([8]; 16 g ai/ha)
100: Plant response rating, Pigweed ([12]; 125 g ai/ha)
70: Plant response rating, Chickweed ([5]; 31 g ai/ha) | Plant response rating, Deadnettle ([6]; 31 g ai/ha) | Plant response rating, Galium ([9]; 31 g ai/ha)
35: Plant response rating, Ryegrass, Italian ([1]; 125 g ai/ha) | Plant response rating, Blackgrass ([2]; 62 g ai/ha) | Plant response rating, Bluegrass ([3]; 62 g ai/ha) | Plant response rating, Canarygrass ([4]; 31 g ai/ha) | Plant response rating, Lambsquarters ([11]; 16 g ai/ha) | Plant response rating, Windgrass ([15]; 125 g ai/ha)
25: Plant response rating, Ryegrass, Italian ([1]; 62 g ai/ha) | Plant response rating, Blackgrass ([2]; 16 g ai/ha) | Plant response rating, Bromegrass, Downy ([7]; 125 g ai/ha) | Plant response rating, Windgrass ([15]; 62 g ai/ha) | Plant response rating, Barley, Winter ([16]; 125 g ai/ha)
85: Plant response rating, Chickweed ([5]; 125 g ai/ha) | Plant response rating, Deadnettle ([6]; 125 g ai/ha) | Plant response rating, Field Violet ([8]; 62 g ai/ha) | Plant response rating, Galium ([9]; 62 g ai/ha) | Plant response rating, Pigweed ([12]; 16 g ai/ha)
60: Plant response rating, Chickweed ([5]; 16 g ai/ha) | Plant response rating, Lambsquarters ([11]; 62 g ai/ha) | Plant response rating, Buckwheat, Wild ([14]; 16 g ai/ha) | Plant response rating, Buckwheat, Wild ([14]; 31 g ai/ha)
40: Plant response rating, Bluegrass ([3]; 125 g ai/ha) | Plant response rating, Galium ([9]; 16 g ai/ha)
10: Plant response rating, Wheat, Spring ([13]; 16 g ai/ha) | Plant response rating, Windgrass ([15]; 16 g ai/ha) | Plant response rating, Barley, Winter ([16]; 16 g ai/ha)
95: Plant response rating, Pigweed ([12]; 31 g ai/ha) | Plant response rating, Buckwheat, Wild ([14]; 125 g ai/ha)
15: Plant response rating, Ryegrass, Italian ([1]; 16 g ai/ha) | Plant response rating, Bluegrass ([3]; 16 g ai/ha) | Plant response rating, Bromegrass, Downy ([7]; 16 g ai/ha) | Plant response rating, Foxtail, Green ([10]; 16 g ai/ha) | Plant response rating, Foxtail, Green ([10]; 31 g ai/ha) | Plant response rating, Wheat, Spring ([13]; 31 g ai/ha) | Plant response rating, Windgrass ([15]; 31 g ai/ha) | Plant response rating, Barley, Winter ([16]; 31 g ai/ha)
20: Plant response rating, Ryegrass, Italian ([1]; 31 g ai/ha) | Plant response rating, Bluegrass ([3]; 31 g ai/ha) | Plant response rating, Bromegrass, Downy ([7]; 31 g ai/ha) | Plant response rating, Bromegrass, Downy ([7]; 62 g ai/ha) | Plant response rating, Foxtail, Green ([10]; 62 g ai/ha) | Plant response rating, Wheat, Spring ([13]; 62 g ai/ha) | Plant response rating, Wheat, Spring ([13]; 125 g ai/ha) | Plant response rating, Barley, Winter ([16]; 62 g ai/ha)
55: Plant response rating, Deadnettle ([6]; 16 g ai/ha)

Fc1cccc(Oc2ncc(C(F)(F)F)cn2)c1Oc1ncc(Cl)cn1 [Compound 42, 5-chloro-2-[2-fluoro-6-[[5-(trifluoromethyl)-2-pyrimidinyl]oxy]phenoxy]pyrimidine]
20: Plant response rating, Ryegrass, Italian ([1]; 16 g ai/ha) | Plant response rating, Blackgrass ([2]; 16 g ai/ha)
95: Plant response rating, Field Violet ([8]; 125 g ai/ha) | Plant response rating, Lambsquarters ([11]; 125 g ai/ha) | Plant response rating, Buckwheat, Wild ([14]; 62 g ai/ha)
25: Plant response rating, Windgrass ([15]; 16 g ai/ha)
70: Plant response rating, Bluegrass ([3]; 125 g ai/ha) | Plant response rating, Canarygrass ([4]; 62 g ai/ha) | Plant response rating, Galium ([9]; 16 g ai/ha) | Plant response rating, Foxtail, Green ([10]; 125 g ai/ha) | Plant response rating, Lambsquarters ([11]; 16 g ai/ha)
5: Plant response rating, Wheat, Spring ([13]; 31 g ai/ha) | Plant response rating, Wheat, Spring ([13]; 62 g ai/ha) | Plant response rating, Barley, Winter ([16]; 16 g ai/ha) | Plant response rating, Barley, Winter ([16]; 31 g ai/ha)
50: Plant response rating, Ryegrass, Italian ([1]; 31 g ai/ha) | Plant response rating, Bluegrass ([3]; 16 g ai/ha) | Plant response rating, Bluegrass ([3]; 31 g ai/ha) | Plant response rating, Windgrass ([15]; 62 g ai/ha)
90: Plant response rating, Chickweed ([5]; 125 g ai/ha) | Plant response rating, Field Violet ([8]; 62 g ai/ha) | Plant response rating, Galium ([9]; 62 g ai/ha) | Plant response rating, Lambsquarters ([11]; 62 g ai/ha)
0: Plant response rating, Wheat, Spring ([13]; 16 g ai/ha)
75: Plant response rating, Blackgrass ([2]; 125 g ai/ha) | Plant response rating, Canarygrass ([4]; 125 g ai/ha) | Plant response rating, Deadnettle ([6]; 125 g ai/ha) | Plant response rating, Buckwheat, Wild ([14]; 16 g ai/ha)
100: Plant response rating, Galium ([9]; 125 g ai/ha) | Plant response rating, Pigweed ([12]; 16 g ai/ha) | Plant response rating, Pigweed ([12]; 31 g ai/ha) | Plant response rating, Pigweed ([12]; 62 g ai/ha) | Plant response rating, Pigweed ([12]; 125 g ai/ha) | Plant response rating, Buckwheat, Wild ([14]; 125 g ai/ha)
80: Plant response rating, Buckwheat, Wild ([14]; 31 g ai/ha)
65: Plant response rating, Ryegrass, Italian ([1]; 125 g ai/ha) | Plant response rating, Canarygrass ([4]; 31 g ai/ha) | Plant response rating, Chickweed ([5]; 16 g ai/ha) | Plant response rating, Chickweed ([5]; 31 g ai/ha) | Plant response rating, Field Violet ([8]; 16 g ai/ha) | Plant response rating, Field Violet ([8]; 31 g ai/ha)
10: Plant response rating, Foxtail, Green ([10]; 16 g ai/ha) | Plant response rating, Barley, Winter ([16]; 62 g ai/ha)
60: Plant response rating, Ryegrass, Italian ([1]; 62 g ai/ha) | Plant response rating, Blackgrass ([2]; 62 g ai/ha) | Plant response rating, Bluegrass ([3]; 62 g ai/ha) | Plant response rating, Deadnettle ([6]; 62 g ai/ha) | Plant response rating, Bromegrass, Downy ([7]; 125 g ai/ha) | Plant response rating, Foxtail, Green ([10]; 62 g ai/ha) | Plant response rating, Windgrass ([15]; 125 g ai/ha)
85: Plant response rating, Chickweed ([5]; 62 g ai/ha) | Plant response rating, Galium ([9]; 31 g ai/ha) | Plant response rating, Lambsquarters ([11]; 31 g ai/ha)
40: Plant response rating, Deadnettle ([6]; 31 g ai/ha) | Plant response rating, Bromegrass, Downy ([7]; 62 g ai/ha) | Plant response rating, Windgrass ([15]; 31 g ai/ha)
35: Plant response rating, Canarygrass ([4]; 16 g ai/ha) | Plant response rating, Deadnettle ([6]; 16 g ai/ha) | Plant response rating, Bromegrass, Downy ([7]; 31 g ai/ha)
55: Plant response rating, Blackgrass ([2]; 31 g ai/ha)
30: Plant response rating, Bromegrass, Downy ([7]; 16 g ai/ha)
15: Plant response rating, Foxtail, Green ([10]; 31 g ai/ha) | Plant response rating, Wheat, Spring ([13]; 125 g ai/ha) | Plant response rating, Barley, Winter ([16]; 125 g ai/ha)

Source: patent publication US20170190671A1, “BIS(ARYL)CATECHOL DERIVATIVES AS HERBICIDES” (E I DU PONT DE NEMOURS AND COMPANY, priority 2014, published 2017)
